Test results taken from patent US20100143980A1, “SYNTHESIS OF NOVEL XYLOSIDES AND POTENTIAL USES THEREOF” (priority 2007, published 2010).
Entries after “also recorded” stand apart in the source; their conditions may differ.

tested on: CHO pgsA-745; test: Priming of glycosaminoglycan synthesis by xylosides, 35S-sulfate incorporation into purified HS/CS; format: cell-based; conditions: 1 uM
Method: To determine whether the xylosides are able to prime the synthesis of glycosaminoglycans in cells in vitro experiments were performed using CHO pgsA-745. The cells were treated with appropriate primers in the presence of 35S—Na2SO4, glycosaminoglycans were purified and analyzed as described below. 1×10^4 cells were plated per well in Ham's/F12 complete growth medium in a 24-well plate. The cells were incubated at 37° C. in a humidified incubator for 24 hours to a confluency of about 50%. The cells were washed with sterile PBS and replaced with 450 μL ham's/F12 containing 10% dialyzed FBS. Solutions containing a specific primer at 100× the final concentration were prepared. 5 μL of appropriate 100× primer were added to various wells to yield a final concentration of 100 μM. 50 μCi of 35S—Na2SO4 was also added to each well as tracer. The 24-well plates were placed back in the 37° C. incubator for 24 hours before the addition of 100 μL 6× pronase solution followed by incubation at 37° C. overnight.
(§1) To determine whether the xylosides are able to prime the synthesis of glycosaminoglycans in cells, in vitro experiments were performed using CHO pgsA-745. The cells were treated with appropriate primers in the presence of 35S—Na2SO4, glycosaminoglycans were purified and analyzed as described below. 1×10^4 cells were plated per well in Ham's/F12 complete growth medium in a 24-well plate. The cells were incubated at 37° C. in a humidified incubator for 24 hours to a confluency of about 50%. The cells were washed with sterile PBS and replaced with 450 uL ham's/F12 containing 10% dialyzed FBS. Serial dilutions of the primers at 100× the final concentration were prepared. 5 uL of appropriate 100× primer were added to various wells to yield a final concentration of 1, 10, 100 and 1000 uM respectively. 50 uCi of 35S—Na2SO4 was also added to each well as tracer. The 24-well plates were placed back in the 37° C. incubator for 24 hours before the addition of 100 uL 6× pronase solution followed by incubation at 37° C. overnight.
The entire contents of the wells were transferred to a microcentrifuge tube and subjected to centrifugation at 16,000×g for 5 minutes. The supernatant was transferred to a fresh tube and half-a-volume of 0.016% Triton X-100 was added. The diluted supernant was loaded on 0.2 mL DEAE-sepharose column pre-equilibrated with 2 mL of 20 mM NaOAc buffer pH 6.0 containing 0.1 M NaCl and 0.01% Triton X-100 and the column was washed with 4 mL of buffer described above. The bound HS/CS was eluted using 1.2 mL elution buffer, 20 mM NaOAc, pH 6.0, containing 1 M NaCl. The extent of priming by the various xyloside primers was evaluated by quantifying the 35S-radioactivity incorporated in to the purified HS/CS elute by liquid scintillation. 50 uL of the various elutes were added to 5 mL of scintillation cocktail and the vials were counted in a scintillation counter in triplicate. The amount of radioactivity corresponds to the total glycosaminoglycan synthesis due to the primer.
as §1, with “a) To” for “To”, “cells” for “cells,”, “^35S—Na2SO4,” for “35S—Na2SO4,”, “37 C” for “37° C.”, “^35S—Na2SO4” for “35S—Na2SO4”, “The 24-well plates were placed back in the 37° C. incubator for 24 hours before the addition of 100 uL 6× pronase solution followed by incubation at 37° C. overnight.” left out

Row | Compound | priming ability relative to the next highest primer at 1 uM
1 | O=S(=O)(c1ccccc1)[C@@H]1OC[C@@H](O)[C@H](O)[C@H]1O [sulfone-phenyl xyloside] | four times that of the next highest priming activity seen at this concentration

same assay, conditions: 1 uM primer

Row | Compound | GAG priming activity at 1 uM (in words)
2 | O=S(=O)(c1ccccc1)[C@@H]1OC[C@@H](O)[C@H](O)[C@H]1O [sulfone-phenyl xyloside] | better activity at concentration as low as 1 uM; also recorded: highest activity than any of the primers

same assay, conditions: 10 uM primer

Row | Compound | GAG priming activity at 10 uM (in words)
3 | OC1COC(n2cc(COc3ccc4c(c3)CCCC4)nn2)C(O)C1O (stereo not shown) [tetrahydronaphthyl] | significantly higher priming activity than other xylosides
4 | O[C@@H]1[C@@H](O)[C@H](Sc2ccccc2)OC[C@H]1O [thiophenyl, beta-D-thiophenyl xyloside, reference compound] | significantly higher priming activity than other xylosides
5 | O=S(=O)(c1ccccc1)[C@@H]1OC[C@@H](O)[C@H](O)[C@H]1O [sulfone-phenyl xyloside] | significantly higher priming activity than other xylosides

same assay, conditions: 100 uM

Row | Compound | priming activity relative to the thio-phenyl and thio-pyridyl primers
6 | O=S(=O)(c1ccccc1)[C@@H]1OC[C@@H](O)[C@H](O)[C@H]1O [sulfone-phenyl xyloside] | about 60%

same assay, conditions: CHO pgsA-745 cells; concentration not given

Row | Compound | GAG priming ability (in words, relative to the comparator named)
7 | COc1ccc(OCc2cn(C3OCC(O)C(O)C3O)nn2)cc1 (stereo not shown) [compound 9] | marginal effect on the priming ability
8 | COc1ccc(OCc2cn(C3OCC(O)C(O)C3O)nn2)cc1 (stereo not shown) [compound 10] | prime GAGs albeit in lesser quantities than their respective β-anomers
9 | OC1COC(n2ccnn2)C(O)C1O (stereo not shown) [compound 1] | primed slightly better than the well known β-O-naphthyl xyloside
10 | OC1COC(n2cc(COc3ccc4cc(Br)ccc4c3)nn2)C(O)C1O (stereo not shown) [compound 19] | completely abolished the priming activity
11 | OC1COC(n2cc(COc3cc4ccccc4c4ccccc34)nn2)C(O)C1O (stereo not shown) [compound 21] | primed less GAG chains than the less hydrophobic xyloside (Table 1A: compound 18) did
12 | OC1COC(n2cc(COc3cccnc3)nn2)C(O)C1O (stereo not shown) [compound 6] | prime GAGs albeit in lesser quantities than their respective β-anomers
13 | OC1COC(n2cc(-c3ccccc3)nn2)C(O)C1O (stereo not shown) [compound 29] | decreased the priming ability by two fold
14 | OC1COC(n2cc(COCc3ccc(F)cc3)nn2)C(O)C1O (stereo not shown) [compound 24] | down regulates the priming ability
15 | OC1COC(n2ccnn2)C(O)C1O (stereo not shown) [compound 2] | prime GAGs albeit in lesser quantities than their respective β-anomers
16 | OC1COC(n2cc(COCc3ccccc3)nn2)C(O)C1O (stereo not shown) [compound 23] | prime GAGs albeit in lesser quantities than their respective β-anomers
17 | OC1COC(n2cc(COc3ccccc3)nn2)C(O)C1O (stereo not shown) [compound 8] | prime GAGs albeit in lesser quantities than their respective β-anomers
18 | OC1COC(n2cc(COc3ccc4c(c3)CCCC4)nn2)C(O)C1O (stereo not shown) [compound 20] | did not significantly influence priming activity
19 | COc1ccc(-c2cn(C3OCC(O)C(O)C3O)nn2)cc1 (stereo not shown) [compound 33] | primed one-half the amount of GAG chains compared to the unsubstituted xyloside 29
20 | COc1ccccc1-c1cn(C2OCC(O)C(O)C2O)nn1 (stereo not shown) [compound 32] | primed nearly two times the amount of GAG chains compared to the unsubstituted xyloside 29
21 | OC1COC(n2cc(COc3ccc(-c4ccc(Br)cc4)cc3)nn2)C(O)C1O (stereo not shown) [compound 17] | decreased
22 | COc1cc(OC)cc(-c2cn(C3OCC(O)C(O)C3O)nn2)c1 (stereo not shown) [compound 34] | showed decrease priming compared to the unsubstituted xyloside 29
23 | OCc1cccc(COCc2cn(C3OCC(O)C(O)C3O)nn2)c1 (stereo not shown) [compound 25] | down regulates the priming ability

same assay, conditions: fold less efficient than compound 7

Row | Compound | priming efficiency compared to phenyl substituted xyloside compound 7 [times]
24 | OC1COC(n2cc(COc3cccnc3)nn2)C(O)C1O (stereo not shown) [compound 5] | 10

same assay, conditions: relative to unsubstituted phenyl xyloside

Row | Compound | loss of priming activity by para nitro substitution
25 | O=[N+]([O-])c1ccc(OCc2cn(C3OCC(O)C(O)C3O)nn2)cc1 (stereo not shown) [compound 15] | approximately 30%

tested on: CHO pgsA-745; test: Composition of HS and CS in the primed glycosaminoglycans (Chondroitinase AC digestion); format: cell-based; conditions: share of HS in total GAG
Method: (§2) To determine the composition of the HS and CS in the glycosaminoglycans synthesized, a small aliquot of the elute (300 uL) was diluted 10-fold and digested using Chondroitinase AC. The sample was subjected to precipitation to remove the disaccharide in the presence of cold chondroitin sulfate A and scintillation counted. This gives the amount of HS primed on the xylosides and the difference in the radioactivity corresponds to the amount of chondroitin sulfate in the purified glycoaminoglycan elute.
as §2, with “b) To” for “To”

Row | Compound | composition of HS in primed glycosaminoglycans (in words) | composition of HS in primed glycosaminoglycans [%]
26 | OC1COC(n2cc(COc3ccccc3)nn2)C(O)C1O (stereo not shown) [triazole-O-phenyl] | Half | 
27 | OC1COC(n2cc(COc3ccc(F)cc3)nn2)C(O)C1O (stereo not shown) [fluoro-substituted derivative] | Half | 
28 | C-(2-naphthol)-xyloside |  | −72
